Data: patent US9833497B2, “Human originated EGF domain proteins and use of the same” (CHENGDU SOURCEBIO LIMITED-LIABILITY COMPANY, priority 2013, dated 2017)

Legend:
Type in all cases: cell-based
Enterobacter cloacae = assay: MIC against Gram-negative bacteria: Enterobacter cloacae; settings: for MIC (μg/mL) E. cloacae / MIC: E. cloacae
In short: (§1)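 Broth microdilution, LB medium, final inoculum 5×10^5 CFU/mL from McFarland 0.5 cultures. Recombinant human EGF domain proteins tested in two-fold steps, n=3. MIC: lowest concentration, no growth.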

E. coli BL21 = assay: MIC against Gram-negative bacteria: E. coli BL21
In short: as §1

Proteus vulgaris = assay: MIC against Gram-negative bacteria: Proteus vulgaris; settings: for MIC (μg/mL) P. vulgaris / MIC: P. vulgaris
In short: as §1

Moraxella catarrhalis = assay: MIC against Gram-negative bacteria: Moraxella catarrhalis; settings: for MIC (μg/mL) M. catarrhalis / MIC: M. catarrhalis
In short: as §1

Aeromonas hydrophila = assay: MIC against Gram-negative bacteria: Aeromonas hydrophila; settings: for MIC (μg/mL) A. hydrophila / MIC: A. hydrophila
In short: as §1

Klebsiella pneumonia = assay: MIC against Gram-negative bacteria: Klebsiella pneumonia; settings: for MIC (μg/mL) K. pneumonia / MIC: K. pneumonia
In short: as §1

Serratia marcescens = assay: MIC against Gram-negative bacteria: Serratia marcescens; settings: for MIC (μg/mL) S. marcescens / MIC: S. marcescens
In short: as §1

Pseudomonas aeruginosa = assay: MIC against Gram-negative bacteria: Pseudomonas aeruginosa; settings: for MIC (μg/mL) P. aeruginosa / MIC: P. aeruginosa
In short: as §1

Proteus mirabilis = assay: MIC against Gram-negative bacteria: Proteus mirabilis; settings: for MIC (μg/mL) P. mirabilis / MIC: P. mirabilis
In short: as §1

E. coli DH5α = assay: Antibacterial activity: MIC and growth curve against E. coli DH5α in 96-well plate; settings: minimal inhibitory concentration against E. coli DH5α; 96-well plate, 5×10^5 CFU/mL, 37° C., judged after 8 h
In short: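 Log-phase bacteria (OD600 ~0.5) resuspended in LB at 5×10^5 CFU/mL, exposed to recombinant protein at 50, 25, 12.5 μg/mL final in triplicate, 37 °C shaking at 175 rpm. OD600 read every 30 min; MIC is lowest concentration showing no growth.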

Citrobacter diversus = assay: MIC against Gram-negative bacteria: Citrobacter diversus; settings: for MIC (μg/mL) C. diversus / MIC: C. diversus
In short: as §1

[1] = 10 h cultivation at 37° C., 5×10^5 CFU/mL
[2] = E. coli BL21, 10 h cultivation at 37° C., 5×10^5 CFU/mL
[3] = E. coli BL21, 10 h cultivation at 37° C.
[4] = 10 h cultivation at 37° C., 5×10^5 CFU/mL, two-fold serial dilution
[5] = 96-well plate, 5×10^5 CFU/mL, 37° C., 10 h

Substance	MIC (μg/mL) E. cloacae (Enterobacter cloacae; [1])	MIC (μg/mL) E. coli BL21 (E. coli BL21; [2])	MIC (μg/mL) P. vulgaris (Proteus vulgaris; [1])	MIC (μg/mL) M. catarrhalis (Moraxella catarrhalis; [1])	MIC (μg/mL) A. hydrophila (Aeromonas hydrophila; [1])	MIC (μg/mL) K. pneumonia (Klebsiella pneumonia; [1])	MIC (μg/mL) S. marcescens (Serratia marcescens; [1])	MIC (μg/mL) P. aeruginosa (Pseudomonas aeruginosa; [1])	MIC (μg/mL) P. mirabilis (Proteus mirabilis; [1])	MIC (E. coli DH5α)	MIC (μg/mL) C. diversus (Citrobacter diversus; [1])	MIC (Enterobacter cloacae; 10 h cultivation at 37° C.)	MIC (E. coli BL21; [3])	MIC (Proteus vulgaris; 10 h cultivation at 37° C.)	MIC (Moraxella catarrhalis; 10 h cultivation at 37° C.)	MIC (Aeromonas hydrophila; 10 h cultivation at 37° C.)	MIC (Klebsiella pneumonia; 10 h cultivation at 37° C.)	MIC (Serratia marcescens; 10 h cultivation at 37° C.)	MIC (Pseudomonas aeruginosa; 10 h cultivation at 37° C.)	MIC (Proteus mirabilis; 10 h cultivation at 37° C.)	also measured
PRT212 (DIDECESGAHQCSEAQTCVNFHGGYRCV; listed as Homo sapiens)	12.5 µg/mL	50 µg/mL	12.5 µg/mL	25 µg/mL	25 µg/mL	50 µg/mL	12.5 µg/mL	12.5 µg/mL	12.5 µg/mL	12.5 µg/mL	12.5 µg/mL	–	–	–	–	–	–	–	–	–	–
PRT966 (PSHPCAHEPCSHGICYDAPGGFRCVCEPGWSGPRCS; listed as Homo sapiens)	–	–	–	–	–	–	–	–	–	50 µg/mL	–	12.5 µg/mL	12.5 µg/mL	25 µg/mL	12.5 µg/mL	50 µg/mL	25 µg/mL	12.5 µg/mL	50 µg/mL	50 µg/mL	MIC (Citrobacter diversus; 10 h cultivation at 37° C.): 25 µg/mL
PRT886 (RGPRCSQPGETCLNGGKCEAANGTEACVCGGAFVGPRCQ; listed as Homo sapiens)	25 µg/mL	12.5 µg/mL	12.5 µg/mL	12.5 µg/mL	12.5 µg/mL	12.5 µg/mL	25 µg/mL	25 µg/mL	25 µg/mL	25 µg/mL	25 µg/mL	–	–	–	–	–	–	–	–	–	–
PRT793 (YGEACQQICSCQNGADCDSVTGKCTCAPGFKGIDCS; listed as Homo sapiens)	25 µg/mL	12.5 µg/mL	50 µg/mL	12.5 µg/mL	50 µg/mL	12.5 µg/mL	12.5 µg/mL	50 µg/mL	25 µg/mL	25 µg/mL	25 µg/mL	–	–	–	–	–	–	–	–	–	–
PRT1187 (NTNDCNPLPCYNGGICVDGVNWFRCECAPGFAGPDCR; listed as Homo sapiens)	–	–	–	–	–	–	–	–	–	50 µg/mL	–	–	–	–	–	–	–	–	–	–	MIC E. cloacae (Enterobacter cloacae; [4]): 25 µg/mL; MIC E. coli BL21 (E. coli BL21; [4]): 25 µg/mL; MIC P. vulgaris (Proteus vulgaris; [4]): 12.5 µg/mL; MIC M. catarrhalis (Moraxella catarrhalis; [4]): 12.5 µg/mL; MIC A. hydrophila (Aeromonas hydrophila; [4]): 12.5 µg/mL; MIC K. pneumonia (Klebsiella pneumonia; [4]): 25 µg/mL; MIC S. marcescens (Serratia marcescens; [4]): 12.5 µg/mL; MIC P. aeruginosa (Pseudomonas aeruginosa; [4]): 12.5 µg/mL; MIC P. mirabilis (Proteus mirabilis; [4]): 25 µg/mL; MIC C. diversus (Citrobacter diversus; [4]): 12.5 µg/mL
PRT164 (YKDPCANVSCLNGATCDSDGLNGTCICAPGFTGEECD; listed as Homo sapiens)	25 µg/mL	50 µg/mL	50 µg/mL	50 µg/mL	50 µg/mL	12.5 µg/mL	12.5 µg/mL	25 µg/mL	12.5 µg/mL	25 µg/mL	12.5 µg/mL	–	–	–	–	–	–	–	–	–	–
PRT901 (DINECVLSPCRHGASCQNTHGGYRCHCQAGYSGRNCE; listed as Homo sapiens)	–	–	–	–	–	–	–	–	–	25 µg/mL	–	25 µg/mL	25 µg/mL	12.5 µg/mL	50 µg/mL	12.5 µg/mL	50 µg/mL	25 µg/mL	12.5 µg/mL	25 µg/mL	MIC (Citrobacter diversus; 10 h cultivation at 37° C.): 25 µg/mL
PRT978 (DVDECASQPCQHGGSCIDLVARYLCSCPPGTLGVLCE; listed as Homo sapiens)	–	–	–	–	–	–	–	–	–	12.5 µg/mL	–	12.5 µg/mL	50 µg/mL	50 µg/mL	12.5 µg/mL	25 µg/mL	50 µg/mL	12.5 µg/mL	12.5 µg/mL	25 µg/mL	MIC (Citrobacter diversus; 10 h cultivation at 37° C.): 50 µg/mL
PRT934 (DKNECLSNPCQNGGTCDNLVNGYRCTCKKGFKGYNCQ; listed as Homo sapiens)	–	–	–	–	–	–	–	–	–	12.5 µg/mL	–	50 µg/mL	25 µg/mL	12.5 µg/mL	12.5 µg/mL	25 µg/mL	12.5 µg/mL	50 µg/mL	50 µg/mL	50 µg/mL	MIC (Citrobacter diversus; 10 h cultivation at 37° C.): 25 µg/mL
PRT600 (CDCNPLGSLPFLTCDVDTGQCLCLSYVTGAHCEECTVGYWGLGNHLHGCSP; listed as Homo sapiens)	–	–	–	–	–	–	–	–	–	25 µg/mL	–	–	–	–	–	–	–	–	–	–	MIC E. cloacae (Enterobacter cloacae; [5]): 25 µg/mL; MIC E. coli BL21 (E. coli BL21; [5]): 12.5 µg/mL; MIC P. vulgaris (Proteus vulgaris; [5]): 12.5 µg/mL; MIC M. catarrhalis (Moraxella catarrhalis; [5]): 50 µg/mL; MIC A. hydrophila (Aeromonas hydrophila; [5]): 12.5 µg/mL; MIC K. pneumonia (Klebsiella pneumonia; [5]): 50 µg/mL; MIC S. marcescens (Serratia marcescens; [5]): 25 µg/mL; MIC P. aeruginosa (Pseudomonas aeruginosa; [5]): 25 µg/mL; MIC P. mirabilis (Proteus mirabilis; [5]): 25 µg/mL; MIC C. diversus (Citrobacter diversus; [5]): 25 µg/mL
PRT1463 (CDCDTAGSLPGTVCNAKTGQCICKPNVEGRQCNKCLEGNFYLRQNNSFLCLP; listed as Homo sapiens)	–	–	–	–	–	–	–	–	–	50 µg/mL	–	–	–	–	–	–	–	–	–	–	MIC against E. cloacae (Enterobacter cloacae; Enterobacter cloacae, 5×10^5 CFU/mL, 10 h cultivation at 37° C.): 50 µg/mL; MIC against E. coli BL21 (E. coli BL21; E. coli BL21, 5×10^5 CFU/mL, 10 h cultivation at 37° C.): 25 µg/mL; MIC against P. vulgaris (Proteus vulgaris; Proteus vulgaris, 5×10^5 CFU/mL, 10 h cultivation at 37° C.): 25 µg/mL; MIC against M. catarrhalis (Moraxella catarrhalis; Moraxella catarrhalis, 5×10^5 CFU/mL, 10 h cultivation at 37° C.): 25 µg/mL; MIC against A. hydrophila (Aeromonas hydrophila; Aeromonas hydrophila, 5×10^5 CFU/mL, 10 h cultivation at 37° C.): 12.5 µg/mL; MIC against K. pneumonia (Klebsiella pneumonia; Klebsiella pneumonia, 5×10^5 CFU/mL, 10 h cultivation at 37° C.): 25 µg/mL; MIC against S. marcescens (Serratia marcescens; Serratia marcescens, 5×10^5 CFU/mL, 10 h cultivation at 37° C.): 12.5 µg/mL; MIC against P. aeruginosa (Pseudomonas aeruginosa; Pseudomonas aeruginosa, 5×10^5 CFU/mL, 10 h cultivation at 37° C.): 12.5 µg/mL; MIC against P. mirabilis (Proteus mirabilis; Proteus mirabilis, 5×10^5 CFU/mL, 10 h cultivation at 37° C.): 12.5 µg/mL; MIC against C. diversus (Citrobacter diversus; Citrobacter diversus, 5×10^5 CFU/mL, 10 h cultivation at 37° C.): 50 µg/mL
